# According to patent publication US8946189B2, “Transplants” (priority 2007, dated 2015):
# Several values for one entry are separate records, joined by “and”; a condition that tells them apart may be missing. Identical values can stand only once. Entries after “also recorded” stand apart in the source; their conditions may differ.
# Experiments:
# human NK(1) receptor = human NK(1) receptor (Homo sapiens, UniProt P25103); settings: cited from earlier work
# [1] = system: NK(2) and NK(3) receptors; settings: vs NK(1); cited from earlier work
# [2] = oral and/or intravenous, 10, 25, 50 and 100 mg/kg body weight; cited from earlier work
# [3] = system: isolated rat aortic rings; assay: Organ bath tension of isolated rat aortic rings (intact and denuded) precontracted with norepinephrine; assay type: cell-based; settings: for Tension of aortic rings: after 0.3 uM norepinephrine
# [4] = cited from earlier work
# [5] = system: vascular smooth muscle cells; settings: cited from earlier work
# [6] = in vivo; cited from earlier work
# [7] = system: human saphenous vein rings and rat aortic rings; assay type: cell-based
# human NK(1) receptor, sequence (P25103 whole entry): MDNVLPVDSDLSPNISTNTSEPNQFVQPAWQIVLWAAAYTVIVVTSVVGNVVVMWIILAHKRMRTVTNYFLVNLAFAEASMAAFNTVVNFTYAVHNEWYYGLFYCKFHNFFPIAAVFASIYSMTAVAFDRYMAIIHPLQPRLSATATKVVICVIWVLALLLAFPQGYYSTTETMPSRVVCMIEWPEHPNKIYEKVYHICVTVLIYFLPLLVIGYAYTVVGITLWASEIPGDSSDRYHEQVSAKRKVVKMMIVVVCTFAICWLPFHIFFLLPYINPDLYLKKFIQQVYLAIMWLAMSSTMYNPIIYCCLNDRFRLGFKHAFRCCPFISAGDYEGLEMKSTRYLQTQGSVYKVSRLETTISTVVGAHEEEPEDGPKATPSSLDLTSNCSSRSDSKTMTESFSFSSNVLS
molecule,measurement,setting,value
"Cc1cccc(C)c1NC(=O)C[C@H]1CCN(C(=O)c2cc(C(F)(F)F)cc(C(F)(F)F)c2)[C@@H](Cc2ccccc2)C1.O=C(O)C[C@H](O)C(=O)O (relative stereo) [R116301, (2R-trans)-4-[1-[3,5-bis(trifluoromethyl)benzoyl]-2-(phenylmethyl)-4-piperidinyl]-N-(2,6-dimethylphenyl)-1-acetamide (S)-Hydroxybutanedioate]",Ki,human NK(1) receptor,0.45 nM
same,Selectivity toward NK(2) and NK(3) receptors,[1],over 200 fold
"NC(=O)c1ncn([C@@H]2O[C@H](CO)[C@@H](O)[C@H]2O)c1N [Acadesine, 5-amino-4-imidazole carboxamide ribonucleoside]",Safety in humans,[2],safe in humans
"Nc1ncnc2c1ncn2[C@@H]1O[C@H](CO)[C@@H](O)[C@H]1O [Adenosine, 6-amino-9-β-D-ribofuranosyl-9H-purine]",Relaxation of denuded rings as percent of the relaxation of intact rings,[3]; 400 uM,35%
same,Relaxation of denuded rings as percent of the relaxation of intact rings,[3]; 500 uM,44%
same,Greater falls in tension than lidocaine alone,[3]; at 400 and 500 uM,about 30%
same,Concentration at which tension begins to decrease by over 5% relative to the precontracted state,[3]; denuded rings,300 µM
same,Tension expressed as a percent of baseline,"[3]; denuded rings, 10 uM",100%
same,Tension expressed as a percent of baseline,"[3]; denuded rings, 50 uM",100% and 99%
same,Tension expressed as a percent of baseline,"[3]; denuded rings, 100 uM",99% and 98%
same,Relaxation (percent tension decrease) relative to the precontracted state,"[3]; denuded rings, 200 uM",4%
same,Tension expressed as a percent of baseline,"[3]; denuded rings, 200 uM",95% and 93%
same,Tension expressed as a percent of baseline,"[3]; denuded rings, 300 uM",88%
same,"Extent of relaxation, percentage of precontracted norepinephrine tension","[3]; denuded rings, drug 10 μM",100.3 ± 0.2%
same,Tension of aortic rings,"[3]; denuded rings, drug 10 μM",3.56 ± 0.08 g
same,"Extent of relaxation, percentage of precontracted norepinephrine tension","[3]; denuded rings, drug 60 μM",100.0 ± 0.4%
same,Tension of aortic rings,"[3]; denuded rings, drug 60 μM",3.55 ± 0.09 g
same,"Extent of relaxation, percentage of precontracted norepinephrine tension","[3]; denuded rings, drug 160 μM",98.9 ± 0.5%
same,Tension of aortic rings,"[3]; denuded rings, drug 160 μM",3.51 ± 0.09 g
same,"Extent of relaxation, percentage of precontracted norepinephrine tension","[3]; denuded rings, drug 360 μM",95.2 ± 1.1%
same,Tension of aortic rings,"[3]; denuded rings, drug 360 μM",3.39 ± 0.11 g
same,"Extent of relaxation, percentage of precontracted norepinephrine tension","[3]; denuded rings, drug 660 μM",87.6 ± 2.3%
same,Tension of aortic rings,"[3]; denuded rings, drug 660 μM",3.12 ± 0.14 g
same,"Extent of relaxation, percentage of precontracted norepinephrine tension","[3]; denuded rings, drug 1060 μM",76.6 ± 3.4%
same,Tension of aortic rings,"[3]; denuded rings, drug 1060 μM",2.73 ± 0.17 g
same,"Extent of relaxation, percentage of precontracted norepinephrine tension","[3]; denuded rings, drug 1560 μM",62.4 ± 4.2%
same,Tension of aortic rings,"[3]; denuded rings, drug 1560 μM",2.23 ± 0.17 g
same,Concentration at which tension begins to decrease by over 5% relative to the precontracted state,[3]; intact rings,100 µM
same,Relaxation (percent tension decrease) relative to the precontracted state,"[3]; intact rings, 10 uM",no change
same,Tension expressed as a percent of baseline,"[3]; intact rings, 10 uM",99%
same,Relaxation (percent tension decrease) relative to the precontracted state,"[3]; intact rings, 50 uM",no change
same,Tension expressed as a percent of baseline,"[3]; intact rings, 50 uM",96%
same,Tension expressed as a percent of baseline,"[3]; intact rings, 100 uM",89%
same,Tension expressed as a percent of baseline,"[3]; intact rings, 200 uM",76%
same,Tension expressed as a percent of baseline,"[3]; intact rings, 300 uM",61%
same,Tension expressed as a percent of baseline,"[3]; intact rings, 400 uM",48%
same,Tension expressed as a percent of baseline,"[3]; intact rings, 500 uM",39%
same,Maximum relaxation relative to the precontracted state,"[3]; intact rings, at 500 uM",48%
same,"Extent of relaxation, percentage of precontracted norepinephrine tension","[3]; intact rings, drug 10 μM",99.0 ± 0.3%
same,Tension of aortic rings,"[3]; intact rings, drug 10 μM",3.65 ± 0.12 g
same,"Extent of relaxation, percentage of precontracted norepinephrine tension","[3]; intact rings, drug 60 μM",96.2 ± 0.7%
same,Tension of aortic rings,"[3]; intact rings, drug 60 μM",3.54 ± 0.11 g
same,"Extent of relaxation, percentage of precontracted norepinephrine tension","[3]; intact rings, drug 160 μM",89.7 ± 1.5%
same,Tension of aortic rings,"[3]; intact rings, drug 160 μM",3.30 ± 0.09 g
same,"Extent of relaxation, percentage of precontracted norepinephrine tension","[3]; intact rings, drug 360 μM",76.3 ± 3.1%
same,Tension of aortic rings,"[3]; intact rings, drug 360 μM",2.81 ± 0.11 g
same,"Extent of relaxation, percentage of precontracted norepinephrine tension","[3]; intact rings, drug 660 μM",60.7 ± 4.2%
same,Tension of aortic rings,"[3]; intact rings, drug 660 μM",2.23 ± 0.14 g
same,"Extent of relaxation, percentage of precontracted norepinephrine tension","[3]; intact rings, drug 1060 μM",48.5 ± 3.9%
same,Tension of aortic rings,"[3]; intact rings, drug 1060 μM",1.78 ± 0.13 g
same,"Extent of relaxation, percentage of precontracted norepinephrine tension","[3]; intact rings, drug 1560 μM",38.9 ± 2.8%
same,Tension of aortic rings,"[3]; intact rings, drug 1560 μM",1.43 ± 0.08 g
same,Dependence of relaxation on an intact endothelium (denuded vs intact rings),[3],dependent on an intact endothelium
same,Half life in the blood,[4],about 10 seconds
OCCN(CCO)c1nc(N2CCCCC2)c2nc(N(CCO)CCO)nc(N3CCCCC3)c2n1 [Dipyridamole],Inhibition of growth of vascular smooth muscle cells,"[5]; 75 microg/mL (0.150 mM), Kim et al",approximately 90%
same,Duration of sustained antiproliferative effects,[5]; after drug exposure of only 15 min,48 h
CCN(CC)CC(=O)Nc1c(C)cccc1C [Lidocaine],Concentration at which tension begins to decrease by over 5% relative to the precontracted state,[3]; denuded rings,200 µM
same,Relaxation (percent tension decrease) relative to the precontracted state,"[3]; denuded rings, 200 uM",7%
same,"Extent of relaxation, percentage of precontracted norepinephrine tension","[3]; denuded rings, drug 10 μM",100.0 ± 0.4%
same,Tension of aortic rings,"[3]; denuded rings, drug 10 μM",3.32 ± 0.12 g
same,"Extent of relaxation, percentage of precontracted norepinephrine tension","[3]; denuded rings, drug 60 μM",99.4 ± 0.4%
same,Tension of aortic rings,"[3]; denuded rings, drug 60 μM",3.31 ± 0.12 g
same,"Extent of relaxation, percentage of precontracted norepinephrine tension","[3]; denuded rings, drug 160 μM",96.8 ± 0.7%
same,Tension of aortic rings,"[3]; denuded rings, drug 160 μM",3.24 ± 0.12 g
same,"Extent of relaxation, percentage of precontracted norepinephrine tension","[3]; denuded rings, drug 360 μM",93.4 ± 0.6%
same,Tension of aortic rings,"[3]; denuded rings, drug 360 μM",3.11 ± 0.12 g
same,Tension of aortic rings,"[3]; denuded rings, drug 660 μM",2.92 ± 0.12 g
same,"Extent of relaxation, percentage of precontracted norepinephrine tension","[3]; denuded rings, drug 1060 μM",82.4 ± 1.0%
same,Tension of aortic rings,"[3]; denuded rings, drug 1060 μM",2.75 ± 0.12 g
same,"Extent of relaxation, percentage of precontracted norepinephrine tension","[3]; denuded rings, drug 1560 μM",75.8 ± 2.0%
same,Tension of aortic rings,"[3]; denuded rings, drug 1560 μM",2.53 ± 0.13 g
same,Concentration at which tension begins to decrease by over 5% relative to the precontracted state,[3]; intact rings,200 µM
same,Relaxation (percent tension decrease) relative to the precontracted state,"[3]; intact rings, 10 uM",no change
same,Tension expressed as a percent of baseline,"[3]; intact rings, 10 uM",100%
same,Relaxation (percent tension decrease) relative to the precontracted state,"[3]; intact rings, 50 uM",no change
same,Tension expressed as a percent of baseline,"[3]; intact rings, 50 uM",96%
same,Relaxation (percent tension decrease) relative to the precontracted state,"[3]; intact rings, 100 uM",5%
same,Tension expressed as a percent of baseline,"[3]; intact rings, 100 uM",96%
same,Tension expressed as a percent of baseline,"[3]; intact rings, 200 uM",91%
same,Relaxation relative to the relaxation of intact adenosine alone,"[3]; intact rings, 300 uM",14%
same,Tension expressed as a percent of baseline,"[3]; intact rings, 300 uM",84%
same,Relaxation (percent tension decrease) relative to the precontracted state,"[3]; intact rings, 400 uM",24%
same,Relaxation relative to the relaxation of intact adenosine alone,"[3]; intact rings, 400 uM",30%
same,Tension expressed as a percent of baseline,"[3]; intact rings, 400 uM",76%
same,Relaxation relative to the relaxation of intact adenosine alone,"[3]; intact rings, 500 uM",30%
same,Tension expressed as a percent of baseline,"[3]; intact rings, 500 uM",72%
same,"Extent of relaxation, percentage of precontracted norepinephrine tension","[3]; intact rings, drug 10 μM",99.7 ± 0.2%
same,Tension of aortic rings,"[3]; intact rings, drug 10 μM",3.57 ± 0.08 g
same,"Extent of relaxation, percentage of precontracted norepinephrine tension","[3]; intact rings, drug 60 μM",97.8 ± 0.7%
same,Tension of aortic rings,"[3]; intact rings, drug 60 μM",3.50 ± 0.08 g
same,"Extent of relaxation, percentage of precontracted norepinephrine tension","[3]; intact rings, drug 160 μM",96.2 ± 0.6%
same,Tension of aortic rings,"[3]; intact rings, drug 160 μM",3.44 ± 0.07 g
same,"Extent of relaxation, percentage of precontracted norepinephrine tension","[3]; intact rings, drug 360 μM",91.7 ± 0.5%
same,Tension of aortic rings,"[3]; intact rings, drug 360 μM",3.28 ± 0.07 g
same,"Extent of relaxation, percentage of precontracted norepinephrine tension","[3]; intact rings, drug 660 μM",84.4 ± 1.2%
same,Tension of aortic rings,"[3]; intact rings, drug 660 μM",3.02 ± 0.07 g
same,"Extent of relaxation, percentage of precontracted norepinephrine tension","[3]; intact rings, drug 1060 μM",76.2 ± 3.5%
same,Tension of aortic rings,"[3]; intact rings, drug 1060 μM",2.73 ± 0.13 g
same,"Extent of relaxation, percentage of precontracted norepinephrine tension","[3]; intact rings, drug 1560 μM",72.2 ± 3.5%
same,Tension of aortic rings,"[3]; intact rings, drug 1560 μM",2.59 ± 0.14 g
same,Dependence of relaxation on an intact endothelium (denuded vs intact rings),[3],endothelium independent; also recorded: does not appear to be endothelium dependent
CSCC[C@@H]1NC(=O)[C@H](CC(C)C)NC(=O)[C@H](CCCNC(=N)N)NC(=O)[C@H](CO)NC(=O)[C@@H]2CSSC[C@@H]3NC(=O)[C@H](CO)NC(=O)CNC(=O)[C@H]([C@@H](C)O)NC(=O)[C@H](CSSC[C@H](N)C(=O)N[C@@H](CCCCN)C(=O)NCC(=O)N[C@@H](CCCCN)C(=O)NCC(=O)N[C@@H](C)C(=O)N[C@@H](CCCCN)C(=O)N2)NC(=O)[C@H](CSSC[C@@H](C(N)=O)NC(=O)[C@H](CCCCN)NC(=O)CNC(=O)[C@H](CO)NC(=O)[C@H](CCCNC(=N)N)NC3=O)NC(=O)[C@H](CC(=O)O)NC(=O)[C@H](Cc2ccc(O)cc2)NC1=O [Omega conotoxin MVIIA],Potency as an analgesic relative to morphine,[6],100-1000 fold
Botulinum toxin type A,Relaxation of vascular smooth muscle,[7],dose dependent relaxation
